Tested on: TGFb/SMAD Signaling Pathway SBE reporter cell line
Assay: TGFb reporter assay (luciferase)
Format: cell-based
Settings: 5-6 h preincubation, then TGFb, 18 h, luminescence
Method: TGFb/SMAD Signaling Pathway SBE reporter cell line was obtained from BPS Bioscience. Cells were passed/expanded/stored in liquid nitrogen per supplier's instruction with the exception that growth media was changed to DMEM-C with Geneticin (DMEM supplemented with 10% fetal bovine serum, 1× NEAA, 1 mM Pyruvate, 2 mM glutamine, 50 μg/mL penicillin, 50 U/mL streptomycin and 400 ug/mL of Geneticin). The assay media was MEM supplemented with 0.5% fetal bovine serum, 1× NEAA, 1 mM Pyruvate, 50 μg/mL penicillin and 50 U/mL streptomycin.
Reporter cells were harvested from the tissue culture flasks by incubation in small quantity of Versene at room temperature for three to five minutes after the media in the flask was removed and cells rinsed with PBS. Cells were counted and diluted in the assay media at ˜0.8×10^6 cells/mL then 50 uL/well were added to 96-well assay plate. Test samples (at desired concentrations diluted in assay media) were added to assay plate containing the 50 uL/well of cells (or media only), 50 uL per well, and incubated for 5-6 hours at 37° C. in a 5% CO2 humidified incubator. After that time, 15 uL of TGFb diluted to 12.5 ng/mL in the assay media was added to the plate. Controls included TGFb titration (from 25 to 0 ng/mL) without inhibitors, and media only (without cells, inhibitor or TGFb). Plates were incubated at 37° C. in a 5% CO2 humidified incubator for 18 h. Luciferase substrate solution was subsequently added at 75 uL per well, incubated in dark with shaking at room temperature for 10 min, and luminescence was measured using a luminometer.

| SMILES | IC50 |
| --- | --- |
| Cc1cccc(-c2nc(CNc3ccc4c(c3)CCC4N)[nH]c2-c2ccc3ncnn3c2)n1 (stereo not shown) [Compound 1.5, N^5-((5-([1,2,4]triazolo[1,5-a]pyridin-6-yl)-4-(6-methylpyridin-2-yl)-1H-imidazol-2-yl)methyl)-2,3-dihydro-1H-indene-1,5-diamine] | 100 to 1000 nM |
| Cc1cccc(-c2nc(CNc3cccc4c3CCC4N)[nH]c2-c2ccc3ncnn3c2)n1 (stereo not shown) [Compound 1.6, N^4-((5-([1,2,4]triazolo[1,5-a]pyridin-6-yl)-4-(6-methylpyridin-2-yl)-1H-imidazol-2-yl)methyl)-2,3-dihydro-1H-indene-1,4-diamine] | 100 to 1000 nM |
| Cc1cccc(-c2nc(CNC34CC(C3)C4)[nH]c2-c2ccc3ncnn3c2)n1 [Compound 1.9, N-((5-([1,2,4]triazolo[1,5-a]pyridin-6-yl)-4-(6-methylpyridin-2-yl)-1H-imidazol-2-yl)methyl)bicyclo-[1.1.1]pentan-1-amine] | 10 to 100 nM |
| Cc1cccc(-c2nc(CNC3CCCOC3)[nH]c2-c2ccc3ncnn3c2)n1 (stereo not shown) [Compound 1.15, 1-(5-([1,2,4]triazolo[1,5-a]pyridin-6-yl)-4-(6-methylpyridin-2-yl)-1H-imidazol-2-yl)-N-(3-tetrahydropyranyl)methanamine] | 10 to 100 nM |
| Cc1cccc(-c2nc(CNC3CCCCC3C)[nH]c2-c2ccc3ncnn3c2)n1 (stereo not shown) [Compound 1.16, 1-(5-([1,2,4]triazolo[1,5-a]pyridin-6-yl)-4-(6-methylpyridin-2-yl)-1H-imidazol-2-yl)-N-(2-methylcyclohexyl)methanamine] | 10 to 100 nM |
| Cc1cccc(-c2nc(CNc3cccc4c3C(N)CC4)[nH]c2-c2ccc3ncnn3c2)n1 (stereo not shown) [Compound 1.20, N7-((5-([1,2,4]triazolo[1,5-a]pyridin-6-yl)-4-(6-methylpyridin-2-yl)-1H-imidazol-2-yl)methyl)-2,3-dihydro-1H-indene-1,7-diamine] | 100 to 1000 nM |
| Cc1cccc(-c2nc(CNc3ccc4c(c3)C(N)CC4)[nH]c2-c2ccc3ncnn3c2)n1 (stereo not shown) [Compound 1.21, N6-((5-([1,2,4]triazolo[1,5-a]pyridin-6-yl)-4-(6-methylpyridin-2-yl)-1H-imidazol-2-yl)methyl)-2,3-dihydro-1H-indene-1,6-diamine] | 100 to 1000 nM |

Further lines, results first:

| IC50 | SMILES |
| --- | --- |
| 100 to 1000 nM | CC(=O)NC1Cc2cccc(NCc3nc(-c4cccc(C)n4)c(-c4ccc5ncnn5c4)[nH]3)c2C1 (stereo not shown) [Compound 1.23, N-(4-(((5-([1,2,4]triazolo[1,5-a]pyridin-6-yl)-4-(6-methylpyridin-2-yl)-1H-imidazol-2-yl)methyl)amino)-2,3-dihydro-1H-inden-2-yl)acetamide] |
| 1000 to 10000 nM | Cc1cccc(-c2nc(CNC3CCCNC3)[nH]c2-c2ccn3ncnc3c2)n1 (stereo not shown) [Compound 1.38, N-((5-([1,2,4]triazolo[1,5-a]pyridin-7-yl)-4-(6-methylpyridin-2-yl)-1H-imidazol-2-yl)methyl)piperidin-3-amine] |
| 1000 to 10000 nM | Cc1cccc(-c2nc(CNC3CCNCC3)[nH]c2-c2ccn3ncnc3c2)n1 [Compound 1.39, N-((5-([1,2,4]triazolo[1,5-a]pyridin-7-yl)-4-(6-methylpyridin-2-yl)-1H-imidazol-2-yl)methyl)piperidin-4-amine] |
| 100 to 1000 nM | Cc1cccc(-c2nc(C3CCCNC3)[nH]c2-c2ccc3ncnn3c2)n1 (stereo not shown) [Compound 1.48, 6-(4-(6-methylpyridin-2-yl)-2-(piperidin-3-yl)-1H-imidazol-5-yl)-[1,2,4]triazolo[1,5-a]pyridine] |
| 100 to 1000 nM | Cc1cccc(-c2nc(C3CCCCN3)[nH]c2-c2ccc3ncnn3c2)n1 (stereo not shown) [Compound 1.49, 6-(4-(6-methylpyridin-2-yl)-2-(piperidin-2-yl)-1H-imidazol-5-yl)-[1,2,4]triazolo[1,5-a]pyridine] |
| 100 to 1000 nM | Cc1cccc(-c2nc(C3CCNC3)[nH]c2-c2ccc3ncnn3c2)n1 (stereo not shown) [Compound 1.50, 6-(4-(6-methylpyridin-2-yl)-2-(pyrrolidin-3-yl)-1H-imidazol-5-yl)-[1,2,4]triazolo[1,5-a]pyridine] |

Source: US20210154188A1, “ALK5 INHIBITORS, CONJUGATES, AND USES THEREOF” (SILVERBACK THERAPEUTICS, INC., priority 2018, published 2021)
